SMILES strings stand for the structures. Values after ≈ are worked out from the molar mass of the structure shown. Active and inactive are the calls of the source. The calls are words filed in the database; no cut-off is given here.

In this experiment the test system is KB. Put plainly: Cytotoxicity against human KB cells. The experiment is classed as functional. As to conditions: for EC50: read-out: ED50 (the source's name).

On to `O=c1ccc2nccc3c4cc(O)ccc4n1c23`, for which the EC50 turned out to be 2.2 µg/mL (≈ 9.31 µM).

For the compound `COc1ccc2c(c1)c1ccnc3ccc(=O)n2c31`, the EC50 turned out to be 2.1 µg/mL (≈ 8.39 µM).

Take `O=c1cc2c3ccccc3n3c(=O)ccc([nH]1)c23`: the outcome was inactive.

In the case of `COn1c(=O)cc2c3ccccc3n3c(=O)ccc1c23`, the outcome was inactive.

Consider `COn1c(=O)cc2c3cc(O)ccc3n3c(=O)ccc1c23`, for which the outcome was inactive.

(Values after ChEMBL document CHEMBL1151415, “Plant anticancer agents. XXIV. Alkaloid constituents of Simaba multiflora” (1983).)
